Source: the supplement of paper PMC11451515

System: SEM cells
Experiment: cell viability relative to DMSO control; higher = less cytotoxic
Conditions: 48 h
Procedure, shortened: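 Three leukemia lines were tested: NOMO1 and SEM at 500 cells/well and P12-Ichikawa at 1000 cells/well. Each was adapted for at least four passages in each medium and seeded in 5 μl in 1536-well plates, and library compounds in DMSO were pin-dosed from 47 μM to 0.79 nM in 11 threefold steps. After 48 h at 37°C, CellTiter-Glo One luminescence was read. Viability is a percentage relative to DMSO wells on each plate, with cell-free wells as background.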

[1] = HPLM + 10% dialyzed FBS, 0.000781 µM
[2] = HPLM + 10% dialyzed FBS, 0.00234 µM
[3] = HPLM + 10% dialyzed FBS, 0.00702 µM
[4] = HPLM + 10% dialyzed FBS, 0.0211 µM
[5] = HPLM + 10% dialyzed FBS, 0.0632 µM
[6] = HPLM + 10% dialyzed FBS, 0.19 µM
[7] = HPLM + 10% dialyzed FBS, 0.569 µM
[8] = HPLM + 10% dialyzed FBS, 1.71 µM
[9] = HPLM + 10% dialyzed FBS, 5.12 µM
[10] = HPLM + 10% dialyzed FBS, 15.4 µM
[11] = HPLM + 10% dialyzed FBS, 46.1 µM
[12] = RPMI 5 mM glucose + 10% FBS, 0.000781 µM
[13] = RPMI 5 mM glucose + 10% FBS, 0.00234 µM
[14] = RPMI 5 mM glucose + 10% FBS, 0.00702 µM
[15] = RPMI 5 mM glucose + 10% FBS, 0.0211 µM
[16] = RPMI 5 mM glucose + 10% FBS, 0.0632 µM
[17] = RPMI 5 mM glucose + 10% FBS, 0.19 µM
[18] = RPMI 5 mM glucose + 10% FBS, 0.569 µM
[19] = RPMI 5 mM glucose + 10% FBS, 1.71 µM
[20] = RPMI 5 mM glucose + 10% FBS, 5.12 µM
[21] = RPMI 5 mM glucose + 10% FBS, 15.4 µM
[22] = RPMI 5 mM glucose + 10% FBS, 46.1 µM
[23] = RPMI 5 mM glucose + 10% dialyzed FBS, 0.000781 µM
[24] = RPMI 5 mM glucose + 10% dialyzed FBS, 0.00234 µM
[25] = RPMI 5 mM glucose + 10% dialyzed FBS, 0.00702 µM
[26] = RPMI 5 mM glucose + 10% dialyzed FBS, 0.0211 µM
[27] = RPMI 5 mM glucose + 10% dialyzed FBS, 0.0632 µM
[28] = RPMI 5 mM glucose + 10% dialyzed FBS, 0.19 µM
[29] = RPMI 5 mM glucose + 10% dialyzed FBS, 0.569 µM
[30] = RPMI 5 mM glucose + 10% dialyzed FBS, 1.71 µM
[31] = RPMI 5 mM glucose + 10% dialyzed FBS, 5.12 µM
[32] = RPMI 5 mM glucose + 10% dialyzed FBS, 15.4 µM
[33] = RPMI 5 mM glucose + 10% dialyzed FBS, 46.1 µM

Compound | cell viability [1] [%] | cell viability [2] [%] | cell viability [3] [%] | cell viability [4] [%] | cell viability [5] [%] | cell viability [6] [%] | cell viability [7] [%] | cell viability [8] [%] | cell viability [9] [%] | cell viability [10] [%] | cell viability [11] [%] | cell viability [12] [%] | cell viability [13] [%] | cell viability [14] [%] | cell viability [15] [%] | cell viability [16] [%] | cell viability [17] [%] | cell viability [18] [%] | cell viability [19] [%] | cell viability [20] [%] | cell viability [21] [%] | cell viability [22] [%] | cell viability [23] [%] | cell viability [24] [%] | cell viability [25] [%] | cell viability [26] [%] | cell viability [27] [%] | cell viability [28] [%] | cell viability [29] [%] | cell viability [30] [%] | cell viability [31] [%] | cell viability [32] [%] | cell viability [33] [%]
CN(C)CC[C@H](c1ccc(Cl)cc1)c1ccccn1 | 70.8 | 72.6 | 79.4 | 78.8 | 86.1 | 73.7 | 82.2 | 75.2 | 89.5 | 83.8 | 72.3 | 80.6 | 74.3 | 91 | 92.4 | 88.6 | 95.3 | 100 | 87.2 | 101 | 92.7 | 101 | 78.9 | 83.4 | 82.4 | 86 | 87.1 | 95.4 | 80.5 | 87.3 | 104 | 93.2 | 75.1
Cc1cc(Nc2nc(N[C@@H](C)c3ccc(F)cc3)c(C#N)cc2F)n[nH]1 | 120 | 106 | 114 | 110 | 101 | 95 | 99.1 | 88.7 | 23.4 | 15 | 7.41 | 112 | 104 | 111 | 112 | 107 | 112 | 103 | 93.4 | 24.1 | 13.3 | 6.68 | 104 | 100 | 106 | 105 | 93.9 | 101 | 100 | 76.9 | 23.9 | 16.7 | 6.42
CCCCC(C=O)NC(=O)C(CC(C)C)NC(=O)OCc1ccccc1 (stereo unspecified) | 93.8 | 99.8 | 90.6 | 105 | 98.5 | 58 | 99.1 | 102 | 92.1 | 81.1 | 57 | 110 | 87.2 | 94.2 | 102 | 110 | 88.7 | 91.8 | 90.9 | 84.3 | 85.1 | 52.6 | 93.8 | 82.8 | 78.1 | 89.1 | 86.2 | 66.2 | 96.7 | 94.5 | 84.8 | 71.1 | 47.9
CC[C@@]1(O)C(=O)OCC/2=C1/C=C3\N(CC4=CC5=CC(=CC=C5N=C34)O)C2=O | 120 | 128 | 120 | 104 | 58.8 | 20.9 | 18.9 | 8.26 | 7.73 | 6.07 | 5.91 | 79.1 | 81.5 | 73 | 70.2 | 22.6 | 11.6 | 9.45 | 6.47 | 5.43 | 3.87 | 4.1 | 99.6 | 112 | 114 | 93.1 | 43 | 17.9 | 13 | 7.18 | 6.51 | 6.28 | 4.96
CN(C)c1nc(Cc2ccc(NC(=O)c3ccc4ccccc4c3)cc2)nc(Cl)c1CC(=O)O | 120 | 114 | 112 | 116 | 109 | 111 | 138 | 113 | 105 | 110 | 105 | 110 | 116 | 127 | 108 | 107 | 110 | 110 | 93.8 | 107 | 102 | 105 | 119 | 115 | 136 | 122 | 126 | 108 | 112 | 107 | 111 | 137 | 108
CC1(N2CCC(n3c([C@@H]4CCCNC4)nc4ccccc43)CC2)CCCCCCC1 | 76.6 | 88.6 | 99.7 | 105 | 105 | 89.3 | 103 | 96 | 92.5 | 72.2 | 42.4 | 99.3 | 87.8 | 105 | 119 | 121 | 107 | 119 | 116 | 109 | 96.6 | 87.3 | 103 | 78.8 | 98.7 | 111 | 106 | 95.7 | 117 | 113 | 130 | 77.3 | 87.6
O=C(Nc1ncc(-c2cc(C(F)F)nn2-c2c(Cl)cccc2Cl)s1)C1CC1 | 101 | 113 | 102 | 128 | 121 | 124 | 118 | 47 | 20.5 | 21.9 | 8.41 | 112 | 106 | 123 | 131 | 127 | 137 | 124 | 31.5 | 14.8 | 14.8 | 4.67 | 115 | 103 | 99.9 | 137 | 127 | 123 | 130 | 37.2 | 17.8 | 22 | 5.55
C[C@]12CC[C@@H]3c4ccc(O)cc4CC[C@H]3[C@@H]1C[C@@H](O)[C@@H]2O | 105 | 116 | 108 | 119 | 113 | 121 | 113 | 116 | 113 | 105 | 91.3 | 86.9 | 83.6 | 97.3 | 95.6 | 91.5 | 89.3 | 91.8 | 79.7 | 90.9 | 82.6 | 66.4 | 127 | 120 | 114 | 128 | 129 | 115 | 126 | 106 | 112 | 116 | 92.4
OC(=O)C(CC/1=C/C(=O)NC2=CC=CC=C12)NC(=O)C3=CC=C(Cl)C=C3 (stereo unspecified) | 94.7 | 93.9 | 108 | 106 | 108 | 107 | 116 | 105 | 121 | 121 | 112 | 113 | 109 | 106 | 113 | 133 | 112 | 116 | 112 | 121 | 126 | 104 | 120 | 105 | 126 | 130 | 118 | 119 | 135 | 117 | 131 | 119 | 120
Nc1cccc2c1CN([C@H]1CCC(=O)NC1=O)C2=O | 120 | 131 | 110 | 121 | 115 | 114 | 103 | 97.6 | 81.8 | 99.5 | 89.5 | – | – | – | – | – | – | – | – | – | – | – | 109 | 108 | 117 | 111 | 120 | 109 | 111 | 103 | 103 | 88.8 | 81.4
COc1ccc2[nH]c([S+]([O-])Cc3ncc(C)c(OC)c3C)nc2c1 (stereo unspecified) | 83.2 | 84.8 | 66.8 | 87.9 | 71.9 | 70.5 | 86.6 | 42.6 | 72.8 | 74.9 | 75.7 | 83.8 | 91 | 83.9 | 101 | 77.3 | 100 | 96.8 | 63.8 | 87.5 | 87.1 | 69.8 | 81.4 | 83.5 | 77 | 95.8 | 76.7 | 86.8 | 105 | 69.7 | 76.3 | 83.6 | 68.3
C=CCc1cccc(/C=N/NC(=O)CN2CCN(Cc3ccccc3)CC2)c1O | 124 | 122 | 128 | 137 | 132 | 124 | 144 | 89.4 | 103 | 29.3 | 8.81 | 124 | 114 | 124 | 122 | 131 | 114 | 131 | 105 | 95.4 | 54.8 | 8.05 | – | – | – | – | – | – | – | – | – | – | –
COc1cc([C@H]2Oc3cc([C@H]4Oc5cc(O)cc(O)c5C(=O)[C@@H]4O)ccc3O[C@@H]2CO)ccc1O | 63.6 | 105 | 109 | 112 | 117 | 121 | 121 | 105 | 110 | 98.6 | 92.7 | 101 | 118 | 117 | 116 | 121 | 118 | 104 | 120 | 123 | 120 | 108 | 93.5 | 114 | 124 | 124 | 133 | 126 | 124 | 132 | 118 | 120 | 112
CC(C)c1cnn2c(NCc3ccccc3)cc(NCCCCCCN)nc12 | 121 | 126 | 121 | 117 | 111 | 111 | 119 | 120 | 118 | 106 | 84.9 | 89.8 | 77.3 | 105 | 88.1 | 82.3 | 93.9 | 83.5 | 96.9 | 88.2 | 76.3 | 77.4 | 108 | 109 | 120 | 121 | 98.4 | 117 | 112 | 115 | 96.4 | 114 | 81.8
Cc1[nH]c(/C=C2\C(=O)Nc3ccccc32)c(C)c1CCC(=O)O | 55 | 85.6 | 76.3 | 81.6 | 68.9 | 84 | 6.38 | 32.1 | 26.4 | 26.5 | 18.7 | 71.9 | 97.7 | 108 | 82.6 | 82.4 | 86.9 | 6.07 | 37.1 | 39.1 | 30.9 | 18.3 | 47.4 | 82 | 80.5 | 76.1 | 75.5 | 83.3 | 5.75 | 26.5 | 27.6 | 22 | 15.4
N#Cc1ccnc(Nc2cc(C3CCN(C4COC4)CC3)cc(N3CCC(F)(F)C3)n2)c1 | 96.4 | 97.9 | 91.6 | 110 | 110 | 104 | 109 | 103 | 102 | 35.3 | 10.2 | 107 | 127 | 125 | 128 | 123 | 110 | 131 | 112 | 100 | 43.7 | 8.66 | 103 | 110 | 97.8 | 111 | 121 | 101 | 110 | 106 | 85.5 | 25.5 | 9.03
